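The compound was tested at five concentrations on cells cultured in 96-well plates, with a 48-hour exposure period. Here, GI50 denotes the concentration required for 50% inhibition of growth.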 Activity calls are given as the source filed them. Rule as the data show it: active = GI50 up to about 1.1 µM and inactive = higher.
How the values were obtained:
Assay in all cases: growth of human tumour cells (NCI), 48 h
[1] = test system: SNB-19
[2] = test system: U-251
[3] = test system: NCI-H226
[4] = test system: OVCAR-5
[5] = test system: OVCAR-4
[6] = test system: HCT-116
[7] = test system: NCI-H23
[8] = test system: HOP-62
[9] = test system: NCI-H460
[10] = test system: COLO 205
[11] = test system: RPMI-8226
[12] = test system: MCF7
[13] = test system: SNB-75
[14] = test system: RXF 393
[15] = test system: HT-29
[16] = test system: SK-MEL-2
[17] = test system: SK-MEL-28
[18] = test system: KM-20L2
[19] = test system: MOLT-4
[20] = test system: SK-MEL-5
[21] = test system: A498
[22] = test system: K562
[23] = test system: UO-31
[24] = test system: UACC-62
[25] = test system: HCT-15
[26] = test system: A549
[27] = test system: LOX IMVI
[28] = test system: DMS-114
[29] = test system: DMS-273
[30] = test system: SF-295
[31] = test system: DLD-1
[32] = test system: SF-268
[33] = test system: NCI/ADR-RES
[34] = test system: IGROV-1
[35] = test system: SW-620
[36] = test system: CCRF-CEM
[37] = test system: SK-OV-3
[38] = test system: HOP-92
[39] = test system: HL-60
[40] = test system: SN12C
[41] = test system: CAKI-1
[42] = test system: M19-MEL
[43] = test system: OVCAR-8
[44] = test system: OVCAR-3
[45] = test system: KM12
[46] = test system: XF498
[47] = test system: HOP-18
[48] = test system: SF-539
[49] = test system: UACC-257
[50] = test system: SNB-78
[51] = test system: EKVX
[52] = test system: TK-10
[53] = test system: M14
[54] = test system: SR
[55] = test system: HCC 2998
[56] = test system: Malme-3M

## C=C1CC(OC)(C(O)C(=O)N[C@H]2OCO[C@H]3C2O[C@H](C[C@@H](CO)OC)C(C)(C)C3OC)O[C@H](C)[C@@H]1C (stereo partly drawn)
[1]
  GI50: < 9.31 nM (active)
[2]
  GI50: < 9.31 nM (active)
[3]
  GI50: < 9.31 nM (active)
[4]
  GI50: < 9.31 nM (active)
[5]
  GI50: < 9.31 nM (active)
[6]
  GI50: < 9.31 nM (active)
[7]
  GI50: < 9.31 nM (active)
[8]
  GI50: < 9.31 nM (active)
[9]
  GI50: < 9.31 nM (active)
[10]
  GI50: < 9.31 nM (active)
[11]
  GI50: < 9.31 nM (active)
[12]
  GI50: < 9.31 nM (active)
[13]
  GI50: < 9.31 nM (active)
[14]
  GI50: < 9.31 nM (active)
[15]
  GI50: < 9.31 nM (active)
[16]
  GI50: 93.1 nM (active)
[17]
  GI50: < 9.31 nM (active)
[18]
  GI50: < 9.31 nM (active)
[19]
  GI50: 931 nM (active)
[20]
  GI50: < 9.31 nM (active)
[21]
  GI50: < 9.31 nM (active)
[22]
  GI50: < 9.31 nM (active)
[23]
  GI50: < 9.31 nM (active)
[24]
  GI50: < 9.31 nM (active)
[25]
  GI50: < 9.31 nM
[26]
  GI50: < 9.31 nM (active)
[27]
  GI50: < 9.31 nM (active)
[28]
  GI50: < 9.31 nM (active)
[29]
  GI50: < 9.31 nM (active)
[30]
  GI50: < 9.31 nM (active)
[31]
  GI50: < 9.31 nM (active)
[32]
  GI50: < 9.31 nM (active)
[33]
  GI50: < 9.31 nM (active)
[34]
  GI50: < 9.31 nM (active)
[35]
  GI50: < 9.31 nM (active)
[36]
  GI50: 12.5 nM (active)
[37]
  GI50: < 9.31 nM (active)
[38]
  GI50: < 9.31 nM (active)
[39]
  GI50: < 9.31 nM (active)
[40]
  GI50: < 9.31 nM (active)
[41]
  GI50: < 9.31 nM (active)
[42]
  GI50: < 9.31 nM (active)
[43]
  GI50: < 9.31 nM (active)
[44]
  GI50: < 9.31 nM (active)
[45]
  GI50: < 9.31 nM (active)
[46]
  GI50: < 9.31 nM (active)
[47]
  GI50: < 9.31 nM (active)
[48]
  GI50: < 9.31 nM (active)
[49]
  GI50: < 9.31 nM (active)

## Cn1c(=O)nc2n(-c3ccc(Cl)cc3Cl)c3ccccc3nc-2c1=O
[1]
  GI50: 13700 nM (inactive)
[2]
  GI50: 5060 nM (inactive)
[50]
  GI50: 14600 nM (inactive)
[4]
  GI50: 33800 nM (inactive)
[5]
  GI50: 3510 nM (inactive)
[6]
  GI50: 2180 nM (inactive)
[51]
  GI50: 5270 nM (inactive)
[7]
  GI50: 3270 nM (inactive)
[8]
  GI50: 11700 nM (inactive)
[10]
  GI50: 1700 nM (inactive)
[11]
  GI50: 15400 nM (inactive)
[52]
  GI50: 26200 nM (inactive)
[14]
  GI50: 3960 nM (inactive)
[15]
  GI50: 2530 nM (inactive)
[16]
  GI50: 2870 nM (inactive)
[53]
  GI50: 1760 nM (inactive)
[17]
  GI50: 11400 nM (inactive)
[18]
  GI50: 861 nM (active)
[19]
  GI50: 10700 nM (inactive)
[20]
  GI50: 1410 nM (inactive)
[22]
  GI50: 3920 nM (inactive)
[23]
  GI50: 12000 nM (inactive)
[24]
  GI50: 2040 nM (inactive)
[25]
  GI50: 3050 nM
[26]
  GI50: 1620 nM (inactive)
[28]
  GI50: 1940 nM (inactive)
[54]
  GI50: 19200 nM (inactive)
[30]
  GI50: 2330 nM (inactive)
[31]
  GI50: 3290 nM (inactive)
[32]
  GI50: 25900 nM (inactive)
[34]
  GI50: 12800 nM (inactive)
[37]
  GI50: 30800 nM (inactive)
[38]
  GI50: 7210 nM (inactive)
[39]
  GI50: 3180 nM (inactive)
[41]
  GI50: 3080 nM (inactive)
[42]
  GI50: 1020 nM (active)
[43]
  GI50: 2740 nM (inactive)
[55]
  GI50: 3050 nM (inactive)
[44]
  GI50: 2100 nM (inactive)
[45]
  GI50: 3960 nM (inactive)
[46]
  GI50: 262 nM (active)
[47]
  GI50: 11000 nM (inactive)
[56]
  GI50: 1240 nM (inactive)
[48]
  GI50: 6580 nM (inactive)

Source: ChEMBL document CHEMBL1201862, “PubChem BioAssay data set” (2004)
